# Experimental data from article PMC3566180, “Glucose 6P Binds and Activates HlyIIR to Repress Bacillus cereus Haemolysin hlyII Gene Expression” (PLoS ONE, 2013).
# Key:
# HlyIIR = molecular target: T1, HlyIIR (Bacillus thuringiensis, UniProt A0A1W6WQG6); assay: isothermal titration calorimetry (ITC200, […]°C, […] purified HlyIIR, N = […]); assay type: binding
# T1 construct: gene CAB88_17715; hlyIIR gene amplified from the Bt407 chromosome, GST-tagged (pGEX6P1), tag removed with Precission protease
# [1] = test system: HlyIIR (Bacillus cereus Bt407); assay: ITC; conditions: ITC200, 20 C, protein storage buffer (composition and pH not given), 28 uM HlyIIR in cell, 1.25 uM DNA injected (20 x 2 ul)
# T1 sequence (A0A1W6WQG6 entry or part of it): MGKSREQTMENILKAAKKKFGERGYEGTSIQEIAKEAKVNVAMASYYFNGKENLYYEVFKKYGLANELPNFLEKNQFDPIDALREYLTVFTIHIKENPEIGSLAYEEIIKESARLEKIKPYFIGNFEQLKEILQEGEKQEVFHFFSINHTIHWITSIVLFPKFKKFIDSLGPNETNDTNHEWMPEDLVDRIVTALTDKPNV
Compound,Kd (HlyIIR) [µM],Kd [1] [µM]
O=P(O)(O)OC[C@H]1OC(O)[C@H](O)[C@@H](O)[C@@H]1O (some centres unmarked) [glucose 6P],~10.8,–
hlyII promoter fragment (220 bp),–,0.11
